Measurements: ChEMBL document CHEMBL1201862, “PubChem BioAssay data set” (2004)
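Results reflect a 48-hour exposure of cells in 96-well plates to compound at five concentrations. GI50 = concentration required for 50% inhibition of growth.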 Calls of active or inactive are those of the source. Cut-off read from the data, not from the text of the source: active = GI50 up to about 1.1 µM and inactive = higher.

Key:
Assay in all cases: DTP human tumour cell line panel, 48 h
COLO 205 = system: COLO 205
A498 = system: A498
UO-31 = system: UO-31
MOLT-4 = system: MOLT-4
SNB-75 = system: SNB-75
NCI-H522 = system: NCI-H522
SF-539 = system: SF-539
NCI-H23 = system: NCI-H23
SR = system: SR
MDA-MB-231 = system: MDA-MB-231
PC-3 = system: PC-3
MDA-N = system: MDA-N
BT-549 = system: BT-549
CAKI-1 = system: CAKI-1
T47D = system: T47D
ACHN = system: ACHN
DU-145 = system: DU-145
MDA-MB-435 = system: MDA-MB-435
Hs-578T = system: Hs-578T

SMILES	GI50 (COLO 205)	GI50 (A498)	GI50 (UO-31)	GI50 (MOLT-4)	GI50 (SNB-75)	GI50 (NCI-H522)	GI50 (SF-539)	GI50 (NCI-H23)	GI50 (SR)	GI50 (MDA-MB-231)	GI50 (PC-3)	GI50 (MDA-N)	GI50 (BT-549)	GI50 (CAKI-1)	GI50 (T47D)	GI50 (ACHN)	GI50 (DU-145)	GI50 (MDA-MB-435)	GI50 (Hs-578T)
O=C1C(=C2CCCC2)CCC1CN1CCCCC1 (stereo not drawn)	25.7 µM (inactive)	19.4 µM (inactive)	> 100 µM (inactive)	18.5 µM (inactive)	0.489 µM (active)	1.77 µM (inactive)	21 µM (inactive)	18.7 µM (inactive)	20.7 µM (inactive)										
CN(C)/N=N/c1ccc(NC=O)cc1	> 100 µM (inactive)	> 100 µM (inactive)	82.8 µM (inactive)	55.8 µM (inactive)	> 100 µM (inactive)		> 100 µM (inactive)		48.6 µM (inactive)	> 100 µM (inactive)	> 100 µM (inactive)	> 100 µM (inactive)	> 100 µM (inactive)	> 100 µM (inactive)	39.6 µM (inactive)	> 100 µM (inactive)	> 100 µM (inactive)	> 100 µM (inactive)	
O=c1c2ccccc2ncn1COCc1ccccc1	> 100 µM (inactive)	> 100 µM (inactive)	77.3 µM (inactive)	> 100 µM (inactive)			> 100 µM (inactive)		> 100 µM (inactive)							> 100 µM (inactive)	> 100 µM (inactive)	> 100 µM (inactive)	
CCOC(=O)CNC(=O)C(CSCc1ccc(Br)cc1)NC(=O)CCC(N)C(=O)OCC (stereo not drawn)	> 50 µM (inactive)		> 50 µM (inactive)	> 50 µM (inactive)	> 50 µM (inactive)	> 50 µM (inactive)	> 50 µM (inactive)	> 50 µM (inactive)	> 50 µM (inactive)	> 50 µM (inactive)	> 50 µM (inactive)	> 50 µM (inactive)	> 50 µM (inactive)	> 50 µM (inactive)		> 50 µM (inactive)	> 50 µM (inactive)	> 50 µM (inactive)	> 50 µM (inactive)
CCOC(=O)c1csc(NC(=O)C(C)N2CCCCC2)n1 (stereo not drawn)	> 100 µM (inactive)	> 100 µM (inactive)	> 100 µM (inactive)	> 100 µM (inactive)	> 100 µM (inactive)		> 100 µM (inactive)	> 100 µM (inactive)	2.51 µM (inactive)	> 100 µM (inactive)	> 100 µM (inactive)	> 100 µM (inactive)		> 100 µM (inactive)	> 100 µM (inactive)	> 100 µM (inactive)	> 100 µM (inactive)	> 100 µM (inactive)	
COC(=O)[C@H](Cc1ccccc1)NP(=O)(O)OCC1C=CC(n2cc(C)c(=O)[nH]c2=O)O1 (stereo partly drawn)	> 100 µM (inactive)		> 100 µM (inactive)	> 100 µM (inactive)	> 100 µM (inactive)	> 100 µM (inactive)		> 100 µM (inactive)		> 100 µM (inactive)	> 100 µM (inactive)		> 100 µM (inactive)	> 100 µM (inactive)	> 100 µM (inactive)	26.3 µM (inactive)	> 100 µM (inactive)	> 100 µM (inactive)	> 100 µM (inactive)
N#Cc1c(-c2ccc([N+](=O)[O-])cc2)c(C#N)c(=O)n(NS(=O)(=O)c2ccccc2)c1O	> 100 µM (inactive)	> 100 µM (inactive)		> 100 µM (inactive)		> 100 µM (inactive)	> 100 µM (inactive)			> 100 µM (inactive)	> 100 µM (inactive)	> 100 µM (inactive)	> 100 µM (inactive)	> 100 µM (inactive)		> 100 µM (inactive)		> 100 µM (inactive)	
Cc1ccc2c(O)cc(-c3sccc3C)nc2n1	0.37 µM (active)	0.562 µM (active)	1.52 µM (inactive)	0.486 µM (active)	0.726 µM (active)	0.296 µM (active)	0.474 µM (active)	0.337 µM (active)	0.122 µM (active)	2.48 µM (inactive)	0.426 µM (active)	0.106 µM (active)	4.27 µM (inactive)	0.792 µM (active)		1.1 µM (active)	2.62 µM (inactive)	0.131 µM (active)	0.794 µM (active)
COc1cc(OC2OC(CO)C(O)C(O)C2O)c2c(O)c3c(=O)cc(C)oc3cc2c1 (stereo not drawn)	> 100 µM (inactive)	> 100 µM (inactive)	> 100 µM (inactive)	> 100 µM (inactive)	> 100 µM (inactive)	> 100 µM (inactive)	94 µM (inactive)	> 100 µM (inactive)			> 100 µM (inactive)	> 10 µM (inactive)	29.5 µM (inactive)	> 100 µM (inactive)	> 100 µM (inactive)	> 100 µM (inactive)	> 100 µM (inactive)	> 100 µM (inactive)	> 100 µM (inactive)
N#CC1C(=O)C(=O)N(c2ccccc2)C1=O (stereo not drawn)	> 100 µM (inactive)	> 100 µM (inactive)	> 100 µM (inactive)		81.3 µM (inactive)	> 100 µM (inactive)	> 100 µM (inactive)	> 100 µM (inactive)						> 100 µM (inactive)		> 100 µM (inactive)			
COc1cccc(-c2nc(-c3cnccn3)n(Cc3ccccc3)n2)c1	> 100 µM (inactive)		73.5 µM (inactive)	> 100 µM (inactive)	24.4 µM (inactive)	52.1 µM (inactive)	85.1 µM (inactive)	> 100 µM (inactive)	> 100 µM (inactive)	> 100 µM (inactive)	> 100 µM (inactive)	> 100 µM (inactive)	> 100 µM (inactive)		> 100 µM (inactive)		> 100 µM (inactive)	> 100 µM (inactive)	
C=C[C@@](C)(/C=C/c1ccc(O)cc1)CCC=C(C)C [BAKUCHIOL]	17.7 µM (inactive)	21.2 µM (inactive)	17.7 µM (inactive)	13.1 µM (inactive)	14 µM (inactive)	17.1 µM (inactive)		16.7 µM (inactive)	16.5 µM (inactive)	18.6 µM (inactive)	16.8 µM (inactive)	17.3 µM (inactive)		18.6 µM (inactive)	14 µM (inactive)	10.6 µM (inactive)	13.2 µM (inactive)	18.2 µM (inactive)	20.9 µM (inactive)
NCC(=O)N[C@H]1c2ccsc2/C(=N/O)[C@H]1O	> 100 µM (inactive)	> 100 µM (inactive)	> 100 µM (inactive)	> 100 µM (inactive)			> 100 µM (inactive)	> 100 µM (inactive)	> 100 µM (inactive)	> 100 µM (inactive)	> 100 µM (inactive)	> 100 µM (inactive)	> 100 µM (inactive)	> 100 µM (inactive)	> 100 µM (inactive)		> 100 µM (inactive)	> 100 µM (inactive)	
Oc1cn(-c2ccc(Cl)cc2)nc1-c1nnc(-c2ccccc2)o1	1.87 µM (inactive)	9.4 µM (inactive)	0.726 µM (active)	0.193 µM (active)	> 22.6 µM (inactive)	1.1 µM (active)	0.411 µM (active)	0.155 µM (active)		6.01 µM (inactive)	1.43 µM (inactive)			0.359 µM (active)	3.86 µM (inactive)		2.99 µM (inactive)	0.152 µM (active)	0.484 µM (active)
O=C1Nc2ccccc2C(=O)/C1=C/NC(=S)NCCc1ccccc1	> 100 µM (inactive)		> 100 µM (inactive)	4.03 µM (inactive)	> 100 µM (inactive)		> 100 µM (inactive)	> 100 µM (inactive)		> 100 µM (inactive)	98.4 µM (inactive)	> 100 µM (inactive)	> 100 µM (inactive)	> 100 µM (inactive)	> 100 µM (inactive)	> 100 µM (inactive)	> 100 µM (inactive)	> 100 µM (inactive)	
CN1C(=O)[C@@H]2[C@@H]3c4ccccc4N(S(=O)(=O)C(F)(F)F)[C@@H]3c3[nH]c4ccccc4c3[C@@H]2C1=O	7.91 µM (inactive)	> 100 µM (inactive)	14.1 µM (inactive)	4.3 µM (inactive)	13.2 µM (inactive)		> 100 µM (inactive)	54.1 µM (inactive)	4.9 µM (inactive)	13.2 µM (inactive)	8.47 µM (inactive)	> 100 µM (inactive)	> 100 µM (inactive)	> 100 µM (inactive)		25.1 µM (inactive)	98.2 µM (inactive)	> 100 µM (inactive)	19.7 µM (inactive)
O=c1cc(N2CCCC2)[nH]c(=O)n1-c1ccccc1	> 100 µM (inactive)			> 100 µM (inactive)	> 100 µM (inactive)	> 100 µM (inactive)	> 100 µM (inactive)	> 100 µM (inactive)	> 100 µM (inactive)	> 100 µM (inactive)	> 100 µM (inactive)		> 100 µM (inactive)	> 100 µM (inactive)		> 100 µM (inactive)	> 100 µM (inactive)	> 100 µM (inactive)	
CCc1ccc(COC(=O)C2=C(C)NC(C)=C(C(=O)OCc3ccc(CC)cn3)C2C2=COCCO2)nc1	12.5 µM (inactive)		20.2 µM (inactive)	12.6 µM (inactive)	14.4 µM (inactive)	19.5 µM (inactive)	14.4 µM (inactive)	20 µM (inactive)	21.8 µM (inactive)	14.2 µM (inactive)	16 µM (inactive)		14.4 µM (inactive)	23.9 µM (inactive)	11.3 µM (inactive)	25.2 µM (inactive)	24.9 µM (inactive)	19.5 µM (inactive)	14 µM (inactive)
